From patent US20250250559A1, “METHOD TO ANALYZE AND OPTIMIZE GENE EDITING MODULES AND DELIVERY APPROACHES” (Hoffmann-La Roche Inc., priority 2016, published 2025) come the findings set out here.

Common to all, as to format: cell-based, human
Series [1] has as its system MCF-7 cells. Description: DT resistant colony count of MCF-7 exposed to SCR7 and/or RS-1 during SpCas9-mediated DPH1 editing. On the procedure: (§1) To evaluate and quantify the influence of DNA repair modulators on efficiency and specificity of gene editing, CRISPR/SpCAS9 and DPH1 targeting 20 mer gRNA was combined with compounds that modulate DNA repair mechanisms. The inhibitor Scr7 was applied either 4 hrs before transfection or 18 hrs after transfection of the gene editing modules until […] after transfection to inhibit DNA ligase IV.
SCR7 (1 μM final conc.) or RS-1 (8 μM final conc.) or SCR7+RS-1 (1 μM+8 μM final conc.) were added to MCF7 cells 4 hrs before transfection of the gene editing modules in the ‘early exposure’ setting. For ‘late exposure’ SCR7 (8 µM final conc.) or RS-1 (1 μM final conc.) were added to MCF7 cells 18 hrs after transfection. In both settings, cells were exposed to the modulators until 96 hr after transfection, i.e. ‘early exposure’ consisted of a treatment for a total of 100 hrs, ‘late exposure’ for a total of 78 hrs.
(§2) The system upon which to determine the effects of DNA repair modulators consisted of the CRISPR/SpCas9 modules with DPH1 20 mer gRNA, transfected into MCF7 cells and subjected to subsequent DT and PM selection as described in the previous Examples. Frequencies of DTr, PMr, and double-resistant colonies were recorded to reflect gene inactivation and cassette integration events.

Series [2] relates to MCF-7 cells. Description: PM resistant colony count of MCF-7 exposed to SCR7 and/or RS-1 during SpCas9-mediated DPH1 editing. To be noted: for mean PMr colonies #seeded cells: 80,000: SpCas9 Dph1 gRNA (20 mer). As to the method:
as §1
SCR7 (1 μM final conc.) or RS-1 (8 μM final conc.) or SCR7+RS-1 (1 μM+8 μM final conc.) were added to MCF7 cells 4 hrs before transfection of the gene editing modules in the ‘early exposure’ setting. […]
as §2

Series [3] relates to MCF7. Description: Viability (Promega CTG) assay. As to conditions: 1 μM Scr7, 8 μM RS-1, 1 μM+8 μM combined. As to the method: The RAD51-stimulatory compound 1 (RS-1) was applied to modulate homologous recombination (HR) during gene editing. RS-1 (Sigma Aldrich) was dissolved in DMSO to generate a stock solution of 10 mg/ml, which was diluted in RPMI medium just before application to cells.
The DNA ligase IV inhibitor SCR7 was applied to modulate non-homologous end joining (NHEJ) during gene editing. SCR7 (Sigma) was dissolved in DMSO to generate a stock solution of 10 mg/ml, which was diluted in RPMI medium just before application to cells.

The test system of series [4] is MCF-7 cells. Nature of the series: DT resistant colony count of MCF-7 exposed to SCR7 and/or RS-1 during SpCas9-mediated DPH1 editing. To be noted: SpCas9 Dph1 gRNA (20 mer); compound added 18 hrs after transfection; RS-1 8 μM, SCR7 1 μM.
[5] abbreviates: compound added 4 hr before transfection.
The mark [6] stands for this setting: compound added 4 hrs before transfection.
Setting [7] is: compound added 18 hr after transfection.

Marks after values point to notes of the source that are not given here.

As for SCR7, the “mean DTr colonies #seeded cells: 40,000” value was determined as 205.3 in series [1] (SpCas9 Dph1 gRNA (20 mer), compound added 4 hrs before transfection, RS-1 8 μM, SCR7 1 μM) and 488.8 in series [4]. Further, the “% DT resistant colonies relative to untreated control” value is recorded as 102% in series [1] (setting [5]) and 95%* in series [1] (setting [7]). For the same substance, the “gRNA specific DT-r colonies (gRNA-scRNA)” value in series [1] (setting [6]) stood at 205.3. Moreover, in series [1] (editing entity SpCas9-scRNA, compound added 4 hrs before transfection), the “Mean DT resistant colonies (4 × 40.000 seeded cells)” value came out at 0. Also, the “mean PMr colonies #seeded cells: 80,000” value came to 13.3 in series [2] (compound added 4 hrs before transfection, RS-1 8 μM, SCR7 1 μM) and 25 in series [2] (compound added 18 hrs after transfection, RS-1 8 μM, SCR7 1 μM). Moreover, in series [2] (SpCas9 Dph1 gRNA, compound added 18 hrs after transfection, RS-1 8 μM, SCR7 1 μM), the “% PMr relative to DTr colonies” value amounted to 5.1%. The “increase of the number of PMr colonies compared to untreated control” value in series [2] (compound 4 hrs before until 72 hr after transfection) is given as “approx. 2 fold”. For the same substance, the “% PM resistant colonies relative to untreated control” value in series [2] (setting [5]) came out at 156%*; in series [2] (setting [7]), 125%. The “gRNA specific PM-r colonies (gRNA-scRNA)” value in series [2] (setting [6]) is 9.5. The “effect on the growth or viability of MCF7 cells at the applied dose” value in series [3] was “does not inflict growth inhibitory or toxic effects”; in series [3] (listed as Scr7) it was “no effect on the growth or viability”.
